Assay: (§1) The drug is tested on Z-025 corresponding to rabbit gut metagenome with ENA study accession number: PRJEB37062 and ENA sample accession number: ERS12561824 for biotransformation under anaerobic condition. The drug concentrations were measured over 9 timepoints collected between 0 and 24 hours of incubation by liquid-chromatography-coupled mass spectrometry (LC–MS)
Settings: 2 µM
Note: call rule not given here.

| Bacterial Biotransformation | SMILES |
| --- | --- |
| Compound metabolized | CO[C@]12C[C@@H](COC(=O)c3cncc(Br)c3)CN(C)[C@@H]1Cc1cn(C)c3cccc2c13 [NICERGOLINE] |
| Compound metabolized | CC(=O)OCC(=O)[C@@]1(O)[C@@H](C)C[C@H]2[C@@H]3CCC4=CC(=O)C=C[C@]4(C)[C@@]3(F)[C@@H](O)C[C@@]21C [BETAMETHASONE ACETATE] |

Assay: as §1, with “Z-023” for “Z-025”, “to” for “to rabbit gut”, “ERS12561822” for “ERS12561824”
Settings: 2 µM

| Bacterial Biotransformation | SMILES |
| --- | --- |
| Compound metabolized | CO[C@]12C[C@@H](COC(=O)c3cncc(Br)c3)CN(C)[C@@H]1Cc1cn(C)c3cccc2c13 [NICERGOLINE] |
| Compound metabolized | CC(=O)OCC(=O)[C@@]1(O)[C@@H](C)C[C@H]2[C@@H]3CCC4=CC(=O)C=C[C@]4(C)[C@@]3(F)[C@@H](O)C[C@@]21C [BETAMETHASONE ACETATE] |

Assay: as §1, with “Z-022” for “Z-025”, “mouse” for “rabbit”, “ERS12561821” for “ERS12561824”
Settings: 2 µM

| Bacterial Biotransformation | SMILES |
| --- | --- |
| Compound metabolized | CO[C@]12C[C@@H](COC(=O)c3cncc(Br)c3)CN(C)[C@@H]1Cc1cn(C)c3cccc2c13 [NICERGOLINE] |
| Compound metabolized | CC(=O)OCC(=O)[C@@]1(O)[C@@H](C)C[C@H]2[C@@H]3CCC4=CC(=O)C=C[C@]4(C)[C@@]3(F)[C@@H](O)C[C@@]21C [BETAMETHASONE ACETATE] |

Assay: as §1, with “Z-021” for “Z-025”, “to” for “to rabbit gut”, “ERS12561820” for “ERS12561824”
Settings: 2 µM

| Bacterial Biotransformation | SMILES |
| --- | --- |
| Compound metabolized | CO[C@]12C[C@@H](COC(=O)c3cncc(Br)c3)CN(C)[C@@H]1Cc1cn(C)c3cccc2c13 [NICERGOLINE] |
| Compound metabolized | CC(=O)OCC(=O)[C@@]1(O)[C@@H](C)C[C@H]2[C@@H]3CCC4=CC(=O)C=C[C@]4(C)[C@@]3(F)[C@@H](O)C[C@@]21C [BETAMETHASONE ACETATE] |

Assay: as §1, with “Z-011” for “Z-025”, “mouse” for “rabbit”, “ERS12561811” for “ERS12561824”
Settings: 2 µM

| Bacterial Biotransformation | SMILES |
| --- | --- |
| Compound metabolized | CO[C@]12C[C@@H](COC(=O)c3cncc(Br)c3)CN(C)[C@@H]1Cc1cn(C)c3cccc2c13 [NICERGOLINE] |
| Compound metabolized | CC(=O)OCC(=O)[C@@]1(O)[C@@H](C)C[C@H]2[C@@H]3CCC4=CC(=O)C=C[C@]4(C)[C@@]3(F)[C@@H](O)C[C@@]21C [BETAMETHASONE ACETATE] |

Assay: as §1, with “Z-006” for “Z-025”, “mouse” for “rabbit”, “ERS12561806” for “ERS12561824”
Settings: 2 µM

| Bacterial Biotransformation | SMILES |
| --- | --- |
| Compound metabolized | CO[C@]12C[C@@H](COC(=O)c3cncc(Br)c3)CN(C)[C@@H]1Cc1cn(C)c3cccc2c13 [NICERGOLINE] |
| Compound metabolized | CC(=O)OCC(=O)[C@@]1(O)[C@@H](C)C[C@H]2[C@@H]3CCC4=CC(=O)C=C[C@]4(C)[C@@]3(F)[C@@H](O)C[C@@]21C [BETAMETHASONE ACETATE] |

Assay: as §1, with “WLS-098” for “Z-025”, “human” for “rabbit”, “ERS12561754” for “ERS12561824”
Settings: 2 µM

| Bacterial Biotransformation | SMILES |
| --- | --- |
| Compound metabolized | CO[C@]12C[C@@H](COC(=O)c3cncc(Br)c3)CN(C)[C@@H]1Cc1cn(C)c3cccc2c13 [NICERGOLINE] |
| Compound metabolized | CC(=O)OCC(=O)[C@@]1(O)[C@@H](C)C[C@H]2[C@@H]3CCC4=CC(=O)C=C[C@]4(C)[C@@]3(F)[C@@H](O)C[C@@]21C [BETAMETHASONE ACETATE] |

Assay: as §1, with “WLS-052” for “Z-025”, “human” for “rabbit”, “ERS12561747” for “ERS12561824”
Settings: 2 µM

| Bacterial Biotransformation | SMILES |
| --- | --- |
| Compound metabolized | CO[C@]12C[C@@H](COC(=O)c3cncc(Br)c3)CN(C)[C@@H]1Cc1cn(C)c3cccc2c13 [NICERGOLINE] |
| Compound metabolized | CC(=O)OCC(=O)[C@@]1(O)[C@@H](C)C[C@H]2[C@@H]3CCC4=CC(=O)C=C[C@]4(C)[C@@]3(F)[C@@H](O)C[C@@]21C [BETAMETHASONE ACETATE] |

Assay: as §1, with “WLS-039” for “Z-025”, “human” for “rabbit”, “ERS12561746” for “ERS12561824”
Settings: 2 µM

| Bacterial Biotransformation | SMILES |
| --- | --- |
| Compound metabolized | CO[C@]12C[C@@H](COC(=O)c3cncc(Br)c3)CN(C)[C@@H]1Cc1cn(C)c3cccc2c13 [NICERGOLINE] |
| Compound metabolized | CC(=O)OCC(=O)[C@@]1(O)[C@@H](C)C[C@H]2[C@@H]3CCC4=CC(=O)C=C[C@]4(C)[C@@]3(F)[C@@H](O)C[C@@]21C [BETAMETHASONE ACETATE] |

Assay: as §1, with “WLS-027” for “Z-025”, “human” for “rabbit”, “ERS12561744” for “ERS12561824”
Settings: 2 µM

| Bacterial Biotransformation | SMILES |
| --- | --- |
| Compound metabolized | CO[C@]12C[C@@H](COC(=O)c3cncc(Br)c3)CN(C)[C@@H]1Cc1cn(C)c3cccc2c13 [NICERGOLINE] |
| Compound metabolized | CC(=O)OCC(=O)[C@@]1(O)[C@@H](C)C[C@H]2[C@@H]3CCC4=CC(=O)C=C[C@]4(C)[C@@]3(F)[C@@H](O)C[C@@]21C [BETAMETHASONE ACETATE] |

Assay: as §1, with “WLS-010” for “Z-025”, “human” for “rabbit”, “ERS12561743” for “ERS12561824”
Settings: 2 µM

| Bacterial Biotransformation | SMILES |
| --- | --- |
| Compound metabolized | CO[C@]12C[C@@H](COC(=O)c3cncc(Br)c3)CN(C)[C@@H]1Cc1cn(C)c3cccc2c13 [NICERGOLINE] |
| Compound metabolized | CC(=O)OCC(=O)[C@@]1(O)[C@@H](C)C[C@H]2[C@@H]3CCC4=CC(=O)C=C[C@]4(C)[C@@]3(F)[C@@H](O)C[C@@]21C [BETAMETHASONE ACETATE] |

Settings: human gut metagenome, 24 h, 2 µM

| Bacterial Biotransformation | SMILES |
| --- | --- |
| Compound NOT metabolized | CO[C@]12C[C@@H](COC(=O)c3cncc(Br)c3)CN(C)[C@@H]1Cc1cn(C)c3cccc2c13 [NICERGOLINE] |
| Compound metabolized | CC(=O)OCC(=O)[C@@]1(O)[C@@H](C)C[C@H]2[C@@H]3CCC4=CC(=O)C=C[C@]4(C)[C@@]3(F)[C@@H](O)C[C@@]21C [BETAMETHASONE ACETATE] |

Settings: human gut metagenome, 24 h, 2 µM
Remark: another data set of the same source

| Bacterial Biotransformation | SMILES |
| --- | --- |
| Compound metabolized | CO[C@]12C[C@@H](COC(=O)c3cncc(Br)c3)CN(C)[C@@H]1Cc1cn(C)c3cccc2c13 [NICERGOLINE] |
| Compound metabolized | CC(=O)OCC(=O)[C@@]1(O)[C@@H](C)C[C@H]2[C@@H]3CCC4=CC(=O)C=C[C@]4(C)[C@@]3(F)[C@@H](O)C[C@@]21C [BETAMETHASONE ACETATE] |

Settings: human gut metagenome, 24 h, 2 µM
Remark: another data set of the same source

| Bacterial Biotransformation | SMILES |
| --- | --- |
| Compound NOT metabolized | CO[C@]12C[C@@H](COC(=O)c3cncc(Br)c3)CN(C)[C@@H]1Cc1cn(C)c3cccc2c13 [NICERGOLINE] |
| Compound metabolized | CC(=O)OCC(=O)[C@@]1(O)[C@@H](C)C[C@H]2[C@@H]3CCC4=CC(=O)C=C[C@]4(C)[C@@]3(F)[C@@H](O)C[C@@]21C [BETAMETHASONE ACETATE] |

Settings: human gut metagenome, 24 h, 2 µM
Remark: another data set of the same source

| Bacterial Biotransformation | SMILES |
| --- | --- |
| Compound NOT metabolized | CO[C@]12C[C@@H](COC(=O)c3cncc(Br)c3)CN(C)[C@@H]1Cc1cn(C)c3cccc2c13 [NICERGOLINE] |
| Compound metabolized | CC(=O)OCC(=O)[C@@]1(O)[C@@H](C)C[C@H]2[C@@H]3CCC4=CC(=O)C=C[C@]4(C)[C@@]3(F)[C@@H](O)C[C@@]21C [BETAMETHASONE ACETATE] |

Settings: human gut metagenome, 24 h, 2 µM
Remark: another data set of the same source

| Bacterial Biotransformation | SMILES |
| --- | --- |
| Compound NOT metabolized | CO[C@]12C[C@@H](COC(=O)c3cncc(Br)c3)CN(C)[C@@H]1Cc1cn(C)c3cccc2c13 [NICERGOLINE] |
| Compound metabolized | CC(=O)OCC(=O)[C@@]1(O)[C@@H](C)C[C@H]2[C@@H]3CCC4=CC(=O)C=C[C@]4(C)[C@@]3(F)[C@@H](O)C[C@@]21C [BETAMETHASONE ACETATE] |

Settings: human gut metagenome, 24 h, 2 µM
Remark: another data set of the same source

| Bacterial Biotransformation | SMILES |
| --- | --- |
| Compound metabolized | CO[C@]12C[C@@H](COC(=O)c3cncc(Br)c3)CN(C)[C@@H]1Cc1cn(C)c3cccc2c13 [NICERGOLINE] |
| Compound metabolized | CC(=O)OCC(=O)[C@@]1(O)[C@@H](C)C[C@H]2[C@@H]3CCC4=CC(=O)C=C[C@]4(C)[C@@]3(F)[C@@H](O)C[C@@]21C [BETAMETHASONE ACETATE] |

Settings: human gut metagenome, 24 h, 2 µM
Remark: another data set of the same source

| Bacterial Biotransformation | SMILES |
| --- | --- |
| Compound NOT metabolized | CO[C@]12C[C@@H](COC(=O)c3cncc(Br)c3)CN(C)[C@@H]1Cc1cn(C)c3cccc2c13 [NICERGOLINE] |
| Compound NOT metabolized | CC(=O)OCC(=O)[C@@]1(O)[C@@H](C)C[C@H]2[C@@H]3CCC4=CC(=O)C=C[C@]4(C)[C@@]3(F)[C@@H](O)C[C@@]21C [BETAMETHASONE ACETATE] |

Settings: human gut metagenome, 24 h, 2 µM
Remark: another data set of the same source

| Bacterial Biotransformation | SMILES |
| --- | --- |
| Compound NOT metabolized | CO[C@]12C[C@@H](COC(=O)c3cncc(Br)c3)CN(C)[C@@H]1Cc1cn(C)c3cccc2c13 [NICERGOLINE] |
| Compound NOT metabolized | CC(=O)OCC(=O)[C@@]1(O)[C@@H](C)C[C@H]2[C@@H]3CCC4=CC(=O)C=C[C@]4(C)[C@@]3(F)[C@@H](O)C[C@@]21C [BETAMETHASONE ACETATE] |

Settings: human gut metagenome, 24 h, 2 µM
Remark: another data set of the same source

| Bacterial Biotransformation | SMILES |
| --- | --- |
| Compound metabolized | CO[C@]12C[C@@H](COC(=O)c3cncc(Br)c3)CN(C)[C@@H]1Cc1cn(C)c3cccc2c13 [NICERGOLINE] |
| Compound metabolized | CC(=O)OCC(=O)[C@@]1(O)[C@@H](C)C[C@H]2[C@@H]3CCC4=CC(=O)C=C[C@]4(C)[C@@]3(F)[C@@H](O)C[C@@]21C [BETAMETHASONE ACETATE] |

From ChEMBL document CHEMBL5724914, “Linking interpersonal differences in gut microbiota composition and drug biotransformation activity” (2024)
